The values below come from ChEMBL document CHEMBL1152246, “Design, synthesis and RNase A inhibition activity of catechin and epicatechin and nucleobase chimeric molecules” (Bioorg Med Chem Lett, 2008).

The source made the active and inactive calls. The rule behind the calls is not given here.

Test [1] has as its target T1, Ribonuclease pancreatic (Homo sapiens) (UniProt P07998).
T1 sequence (whole entry): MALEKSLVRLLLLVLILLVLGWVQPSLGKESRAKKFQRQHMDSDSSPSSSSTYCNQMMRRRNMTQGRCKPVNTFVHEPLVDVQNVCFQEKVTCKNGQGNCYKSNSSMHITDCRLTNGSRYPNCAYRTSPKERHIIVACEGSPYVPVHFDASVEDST
Put plainly: Inhibition of RNase A assessed as degradation of 28s and 18s rRNA at 0.476 mM after 6 hrs by agarose gel based assay.

Test [2] deals with T1, Ribonuclease pancreatic (Homo sapiens). Nature of the test: Inhibition of RNase A assessed as degradation of 28s and 18s rRNA at 0.412 mM after 6 hrs by agarose gel based assay.

Regarding `Nc1ncnc2c1ncn2CCn1cc(CO[C@H]2Cc3c(O)cc(O)cc3O[C@@H]2c2ccc(O)c(O)c2)nn1`, in test [1], the outcome was Active. Regarding `CCOC(=O)Cn1c(=O)c(C)cn(CCn2cc(CO[C@H]3Cc4c(O)cc(O)cc4O[C@@H]3c3ccc(O)c(O)c3)nn2)c1=O`, the outcome in test [2] was inactive. Same read-out and setting: next, `CCOC(=O)Cn1c(=O)c(C)cn(CCn2cc(CO[C@@H]3Cc4c(O)cc(O)cc4O[C@@H]3c3ccc(O)c(O)c3)nn2)c1=O`: “inactive”.

In the case of `Nc1ncnc2c1ncn2CCn1cc(CO[C@@H]2Cc3c(O)cc(O)cc3O[C@@H]2c2ccc(O)c(O)c2)nn1`, the result in test [1] was Active.
